Series [1] in a line: Solubility of curcumin and quercetin in phosphate buffer pH 6.8. Particulars: 0.2 µm filter. The class given is physicochemical. As to the method: Following the same protocol, the same amount of quercetin (150 mg) is solubilized in phosphate buffer pH 6.8. […] Solubilized quercetin: […] of the initial dose.
The conditions of series [2]: 42 mg or 84 mg of oral curcumin; even under metabolised forms; cited from earlier work.

The structures appear in SMILES notation.

Consider `COc1cc(C=CC(=O)CC(=O)C=Cc2ccc(O)c(OC)c2)ccc1O` [curcumin, 1,7-bis(4-hydroxyl-3-methoxyphenyl)-1,6-heptadiene-3,5-dione], for which the Solubilized curcumin in series [1] (84 mg curcumin in 900 ml phosphate buffer pH 6.8, 1 hour at 37°C) was 0.004 % of the initial dose. Besides, the “oral bioavailability of low dosages of curcumin” value in series [2] is “not bioavailable at all”.

`O=c1c(O)c(-c2ccc(O)c(O)c2)oc2cc(O)cc(O)c12` [quercetin, Quercetin]: in series [1] (900 ml phosphate buffer pH 6.8, 1 h at 37°C), the Solubilized quercetin is recorded as 4 % of the initial dose.
